{"source": "ChEMBL document CHEMBL1921700", "about": "“Synthesis of novel 3-carboxamide-benzocoumarin derivatives as orally active antithrombotic agents” (Bioorg Med Chem Lett, 2011)", "key": {"[1]": {"system": "Mus musculus", "assay": "Ex vivo anticoagulant activity in mouse assessed as prothrombin time in plasma at 30 uM/kg, po after for 3 days", "format": "functional"}, "[2]": {"system": "Mus musculus", "assay": "Toxicity in mouse assessed as increase in bleeding time at 30 uM/kg, po administered 60 mins prior to tail incision after 3 days relative to aspirin", "format": "organism-based", "conditions": "in vivo"}, "[3]": {"system": "Mus musculus", "assay": "Toxicity in mouse assessed as increase in bleeding time at 30 uM/kg, po administered 60 mins prior to tail incision after 1 hr relative to aspirin", "format": "organism-based", "conditions": "in vivo"}, "[4]": {"system": "Mus musculus", "assay": "Ex vivo antithrombotic activity in mouse assessed as protection against collagen and adrenaline-induced hind limb paralysis or death at 30 uM/kg, po administered 60 mins prior to thrombotic challenge after 3 days", "format": "functional, Hindlimb"}, "[5]": {"system": "Mus musculus", "assay": "Ex vivo antithrombotic activity in mouse assessed as protection against collagen and adrenaline-induced hind limb paralysis or death at 30 uM/kg, po administered 60 mins prior to thrombotic challenge after 1 hr", "format": "functional, Hindlimb"}}}
{"compound": "CCCNC(=O)c1cc2cc(C)c3ccccc3c2oc1=O", "values": [{"measurement": "Time", "setting": "[1]", "result": 10.2, "unit": "s"}, {"measurement": "Activity", "setting": "[2]", "result": 55, "unit": "%"}, {"measurement": "Activity", "setting": "[3]", "result": 17, "unit": "%"}, {"measurement": "Activity", "setting": "[4]", "result": 20, "unit": "%"}, {"measurement": "Activity", "setting": "[5]", "result": 10, "unit": "%"}]}
{"compound": "CNC(=O)c1cc2cc(C)c3ccccc3c2oc1=O", "values": [{"measurement": "Time", "setting": "[1]", "result": 8.5, "unit": "s"}, {"measurement": "Activity", "setting": "[2]", "result": 65, "unit": "%"}, {"measurement": "Activity", "setting": "[3]", "result": 48, "unit": "%"}, {"measurement": "Activity", "setting": "[4]", "result": 40, "unit": "%"}, {"measurement": "Activity", "setting": "[5]", "result": 35, "unit": "%"}]}
{"compound": "CCNC(=O)c1cc2cc(C)c3ccccc3c2oc1=O", "values": [{"measurement": "Time", "setting": "[1]", "result": 10.2, "unit": "s"}, {"measurement": "Activity", "setting": "[2]", "result": 68, "unit": "%"}, {"measurement": "Activity", "setting": "[3]", "result": 45, "unit": "%"}, {"measurement": "Activity", "setting": "[4]", "result": 30, "unit": "%"}, {"measurement": "Activity", "setting": "[5]", "result": 30, "unit": "%"}]}
{"compound": "Cc1cc2cc(C(=O)N(C)C)c(=O)oc2c2ccccc12", "values": [{"measurement": "Time", "setting": "[1]", "result": 10, "unit": "s"}, {"measurement": "Activity", "setting": "[2]", "result": 100, "unit": "%"}, {"measurement": "Activity", "setting": "[3]", "result": 58, "unit": "%"}, {"measurement": "Activity", "setting": "[4]", "result": 40, "unit": "%"}, {"measurement": "Activity", "setting": "[5]", "result": 20, "unit": "%"}]}
{"compound": "Cc1cc2cc(C(=O)NC3CCCCC3)c(=O)oc2c2ccccc12", "values": [{"measurement": "Time", "setting": "[1]", "result": 10.2, "unit": "s"}, {"measurement": "Activity", "setting": "[2]", "result": 82, "unit": "%"}, {"measurement": "Activity", "setting": "[3]", "result": 53, "unit": "%"}, {"measurement": "Activity", "setting": "[4]", "result": 40, "unit": "%"}, {"measurement": "Activity", "setting": "[5]", "result": 35, "unit": "%"}]}
{"compound": "Cc1cc2cc(C(=O)N3CCCCC3)c(=O)oc2c2ccccc12", "values": [{"measurement": "Time", "setting": "[1]", "result": 9.4, "unit": "s"}, {"measurement": "Activity", "setting": "[2]", "result": 91, "unit": "%"}, {"measurement": "Activity", "setting": "[3]", "result": 59, "unit": "%"}, {"measurement": "Activity", "setting": "[4]", "result": 29, "unit": "%"}, {"measurement": "Activity", "setting": "[5]", "result": 20, "unit": "%"}]}
{"compound": "Cc1cc2cc(C(=O)N3CCN(C)CC3)c(=O)oc2c2ccccc12", "values": [{"measurement": "Time", "setting": "[1]", "result": 8.1, "unit": "s"}, {"measurement": "Activity", "setting": "[2]", "result": 55, "unit": "%"}, {"measurement": "Activity", "setting": "[3]", "result": 17, "unit": "%"}, {"measurement": "Activity", "setting": "[4]", "result": 20, "unit": "%"}, {"measurement": "Activity", "setting": "[5]", "result": 10, "unit": "%"}]}
{"compound": "Cc1cc2cc(C(=O)N3CCOCC3)c(=O)oc2c2ccccc12", "values": [{"measurement": "Time", "setting": "[1]", "result": 11.6, "unit": "s"}, {"measurement": "Activity", "setting": "[2]", "result": 100, "unit": "%"}, {"measurement": "Activity", "setting": "[3]", "result": 33, "unit": "%"}, {"measurement": "Activity", "setting": "[4]", "result": 33, "unit": "%"}, {"measurement": "Activity", "setting": "[5]", "result": 20, "unit": "%"}]}
{"compound": "Cc1cc2cc(C(=O)NCCCN3CCOCC3)c(=O)oc2c2ccccc12", "values": [{"measurement": "Time", "setting": "[1]", "result": 10.2, "unit": "s"}, {"measurement": "Activity", "setting": "[2]", "result": 91, "unit": "%"}, {"measurement": "Activity", "setting": "[3]", "result": 50, "unit": "%"}, {"measurement": "Activity", "setting": "[4]", "result": 33, "unit": "%"}, {"measurement": "Activity", "setting": "[5]", "result": 30, "unit": "%"}]}
{"compound": "Cc1ccc(NC(=O)c2cc3cc(C)c4ccccc4c3oc2=O)cc1", "values": [{"measurement": "Time", "setting": "[1]", "result": 9.3, "unit": "s"}, {"measurement": "Activity", "setting": "[2]", "result": 63, "unit": "%"}, {"measurement": "Activity", "setting": "[3]", "result": 58, "unit": "%"}, {"measurement": "Activity", "setting": "[4]", "result": 40, "unit": "%"}, {"measurement": "Activity", "setting": "[5]", "result": 30, "unit": "%"}]}
{"compound": "CNC(=O)c1cc2cc(/C=C/C(=O)c3ccc(C)cc3)c3ccccc3c2oc1=O", "values": [{"measurement": "Time", "setting": "[1]", "result": 9.9, "unit": "s"}, {"measurement": "Activity", "setting": "[2]", "result": 55, "unit": "%"}, {"measurement": "Activity", "setting": "[3]", "result": 17, "unit": "%"}, {"measurement": "Activity", "setting": "[4]", "result": 22, "unit": "%"}, {"measurement": "Activity", "setting": "[5]", "result": 20, "unit": "%"}]}
{"compound": "CCNC(=O)c1cc2cc(/C=C/C(=O)c3ccc(C)cc3)c3ccccc3c2oc1=O", "values": [{"measurement": "Time", "setting": "[1]", "result": 11.1, "unit": "s"}, {"measurement": "Activity", "setting": "[2]", "result": 100, "unit": "%"}, {"measurement": "Activity", "setting": "[3]", "result": 33, "unit": "%"}, {"measurement": "Activity", "setting": "[4]", "result": 44, "unit": "%"}, {"measurement": "Activity", "setting": "[5]", "result": 40, "unit": "%"}]}
{"compound": "CCCNC(=O)c1cc2cc(/C=C/C(=O)c3ccc(C)cc3)c3ccccc3c2oc1=O", "values": [{"measurement": "Time", "setting": "[1]", "result": 10.3, "unit": "s"}, {"measurement": "Activity", "setting": "[2]", "result": 127, "unit": "%"}, {"measurement": "Activity", "setting": "[3]", "result": 100, "unit": "%"}, {"measurement": "Activity", "setting": "[4]", "result": 33, "unit": "%"}, {"measurement": "Activity", "setting": "[5]", "result": 40, "unit": "%"}]}
{"compound": "Cc1ccc(C(=O)/C=C/c2cc3cc(C(=O)N(C)C)c(=O)oc3c3ccccc23)cc1", "values": [{"measurement": "Time", "setting": "[1]", "result": 10.5, "unit": "s"}, {"measurement": "Activity", "setting": "[2]", "result": 82, "unit": "%"}, {"measurement": "Activity", "setting": "[3]", "result": 59, "unit": "%"}, {"measurement": "Activity", "setting": "[4]", "result": 33, "unit": "%"}, {"measurement": "Activity", "setting": "[5]", "result": 30, "unit": "%"}]}
{"compound": "Cc1ccc(C(=O)/C=C/c2cc3cc(C(=O)NC4CCCCC4)c(=O)oc3c3ccccc23)cc1", "values": [{"measurement": "Time", "setting": "[1]", "result": 10.6, "unit": "s"}, {"measurement": "Activity", "setting": "[2]", "result": 109, "unit": "%"}, {"measurement": "Activity", "setting": "[3]", "result": 84, "unit": "%"}, {"measurement": "Activity", "setting": "[4]", "result": 44, "unit": "%"}, {"measurement": "Activity", "setting": "[5]", "result": 40, "unit": "%"}]}
{"compound": "Cc1ccc(C(=O)/C=C/c2cc3cc(C(=O)N4CCCCC4)c(=O)oc3c3ccccc23)cc1", "values": [{"measurement": "Time", "setting": "[1]", "result": 9.7, "unit": "s"}, {"measurement": "Activity", "setting": "[2]", "result": 45, "unit": "%"}, {"measurement": "Activity", "setting": "[3]", "result": 25, "unit": "%"}, {"measurement": "Activity", "setting": "[4]", "result": 42, "unit": "%"}, {"measurement": "Activity", "setting": "[5]", "result": 30, "unit": "%"}]}
{"compound": "Cc1ccc(C(=O)/C=C/c2cc3cc(C(=O)N4CCN(C)CC4)c(=O)oc3c3ccccc23)cc1", "values": [{"measurement": "Time", "setting": "[1]", "result": 8.7, "unit": "s"}, {"measurement": "Activity", "setting": "[2]", "result": 36, "unit": "%"}, {"measurement": "Activity", "setting": "[3]", "result": 34, "unit": "%"}, {"measurement": "Activity", "setting": "[4]", "result": 22, "unit": "%"}, {"measurement": "Activity", "setting": "[5]", "result": 20, "unit": "%"}]}
{"compound": "Cc1ccc(C(=O)/C=C/c2cc3cc(C(=O)N4CCOCC4)c(=O)oc3c3ccccc23)cc1", "values": [{"measurement": "Time", "setting": "[1]", "result": 11.4, "unit": "s"}, {"measurement": "Activity", "setting": "[2]", "result": 55, "unit": "%"}, {"measurement": "Activity", "setting": "[3]", "result": 17, "unit": "%"}, {"measurement": "Activity", "setting": "[4]", "result": 30, "unit": "%"}, {"measurement": "Activity", "setting": "[5]", "result": 20, "unit": "%"}]}
{"compound": "Cc1ccc(C(=O)/C=C/c2cc3cc(C(=O)NCCCN4CCOCC4)c(=O)oc3c3ccccc23)cc1", "values": [{"measurement": "Time", "setting": "[1]", "result": 11, "unit": "s"}, {"measurement": "Activity", "setting": "[2]", "result": 45, "unit": "%"}, {"measurement": "Activity", "setting": "[3]", "result": 25, "unit": "%"}, {"measurement": "Activity", "setting": "[4]", "result": 33, "unit": "%"}, {"measurement": "Activity", "setting": "[5]", "result": 30, "unit": "%"}]}
{"compound": "Cc1ccc(NC(=O)c2cc3cc(/C=C/C(=O)c4ccc(C)cc4)c4ccccc4c3oc2=O)cc1", "values": [{"measurement": "Time", "setting": "[1]", "result": 9.5, "unit": "s"}, {"measurement": "Activity", "setting": "[2]", "result": 109, "unit": "%"}, {"measurement": "Activity", "setting": "[3]", "result": 83, "unit": "%"}, {"measurement": "Activity", "setting": "[4]", "result": 44, "unit": "%"}, {"measurement": "Activity", "setting": "[5]", "result": 40, "unit": "%"}]}
{"compound": "CC(=O)Oc1ccccc1C(=O)O", "note": "[ASPIRIN]", "values": [{"measurement": "Activity", "setting": "[3]", "result": 100, "unit": "%"}, {"measurement": "Activity", "setting": "[5]", "result": 37, "unit": "%"}]}
{"compound": "CC(=O)CC(c1ccccc1)c1c(O)c2ccccc2oc1=O", "note": "(stereo not given) [WARFARIN]", "values": [{"measurement": "Time", "setting": "[1]", "result": 116, "unit": "s"}, {"measurement": "Activity", "setting": "[2]", "result": 46, "unit": "%"}, {"measurement": "Activity", "setting": "[4]", "result": 50, "unit": "%"}]}
